Calls of active or inactive are those of the source. No cut-off for these calls is given here.
Key:
[1] = target: Cyclin-dependent kinase 5 (Homo sapiens, UniProt Q00535); assay: Inhibition of CDK5 (unknown origin)
[2] = target: Cyclin-dependent kinase 6 (Homo sapiens, UniProt Q00534); assay: Inhibition of CDK6 (unknown origin)
[3] = target: Cyclin-dependent kinase 12 (Homo sapiens, UniProt Q9NYV4); assay: Inhibition of CDK12 (unknown origin)
[4] = target: Glycogen synthase kinase-3 beta (Homo sapiens) (UniProt P49841); assay: Inhibition of human full length GSK3beta expressed in mammalian system at 1 uM by KINOMEscan analysis relative to control
Chain of Glycogen synthase kinase-3 beta (Homo sapiens) (P49841 whole entry, looked up): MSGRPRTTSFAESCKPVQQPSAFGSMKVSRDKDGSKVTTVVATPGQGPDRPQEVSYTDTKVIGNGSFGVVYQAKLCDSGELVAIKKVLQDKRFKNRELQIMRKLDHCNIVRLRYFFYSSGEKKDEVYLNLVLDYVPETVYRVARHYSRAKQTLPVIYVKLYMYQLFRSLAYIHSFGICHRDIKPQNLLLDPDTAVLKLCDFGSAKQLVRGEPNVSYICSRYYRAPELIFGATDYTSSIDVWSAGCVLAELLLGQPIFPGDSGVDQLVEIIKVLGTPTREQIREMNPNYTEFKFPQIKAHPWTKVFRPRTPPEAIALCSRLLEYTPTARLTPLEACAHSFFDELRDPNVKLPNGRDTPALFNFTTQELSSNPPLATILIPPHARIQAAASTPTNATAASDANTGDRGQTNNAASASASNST

[5] = target: Aurora kinase A (Homo sapiens) (UniProt O14965); assay: Inhibition of human partial length Aurora-A (E122/K401) expressed in mammalian system at 1 uM by KINOMEscan analysis relative to control
Chain of Aurora kinase A (Homo sapiens) (O14965 whole entry): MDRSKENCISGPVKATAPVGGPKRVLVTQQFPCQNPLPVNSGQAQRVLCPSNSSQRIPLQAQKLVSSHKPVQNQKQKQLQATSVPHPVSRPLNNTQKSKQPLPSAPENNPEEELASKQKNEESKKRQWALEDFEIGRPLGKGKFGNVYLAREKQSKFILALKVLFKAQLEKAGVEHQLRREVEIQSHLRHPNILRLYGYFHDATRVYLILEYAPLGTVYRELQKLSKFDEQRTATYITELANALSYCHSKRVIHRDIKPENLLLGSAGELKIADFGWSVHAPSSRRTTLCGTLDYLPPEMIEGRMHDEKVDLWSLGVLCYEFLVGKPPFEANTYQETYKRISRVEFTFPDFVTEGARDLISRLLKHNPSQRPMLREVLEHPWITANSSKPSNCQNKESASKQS

[6] = target: Serine/threonine-protein kinase 17A (Homo sapiens) (UniProt Q9UEE5); assay: Inhibition of human partial length wild type DRAK1 expressed in bacterial system at 1 uM by KINOMEscan analysis relative to control
Chain of Serine/threonine-protein kinase 17A (Homo sapiens) (Q9UEE5 whole entry): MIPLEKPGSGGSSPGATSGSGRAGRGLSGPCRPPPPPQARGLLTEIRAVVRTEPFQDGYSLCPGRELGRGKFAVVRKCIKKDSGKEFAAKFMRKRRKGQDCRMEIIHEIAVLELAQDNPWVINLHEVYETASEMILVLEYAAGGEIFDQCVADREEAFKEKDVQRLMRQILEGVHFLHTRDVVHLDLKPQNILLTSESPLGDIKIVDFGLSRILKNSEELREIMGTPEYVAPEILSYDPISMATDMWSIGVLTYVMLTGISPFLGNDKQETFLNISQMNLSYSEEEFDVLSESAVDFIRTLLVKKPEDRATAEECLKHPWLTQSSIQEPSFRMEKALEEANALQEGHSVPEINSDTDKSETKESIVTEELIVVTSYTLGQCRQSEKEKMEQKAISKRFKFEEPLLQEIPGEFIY

[7] = target: Tyrosine-protein kinase ABL1 (Homo sapiens) (UniProt P00519); assay: Inhibition of human partial length Ab1 (S229/K512) expressed in mammalian system at 1 uM by KINOMEscan analysis relative to control
Chain of Tyrosine-protein kinase ABL1 (Homo sapiens) (P00519 whole entry): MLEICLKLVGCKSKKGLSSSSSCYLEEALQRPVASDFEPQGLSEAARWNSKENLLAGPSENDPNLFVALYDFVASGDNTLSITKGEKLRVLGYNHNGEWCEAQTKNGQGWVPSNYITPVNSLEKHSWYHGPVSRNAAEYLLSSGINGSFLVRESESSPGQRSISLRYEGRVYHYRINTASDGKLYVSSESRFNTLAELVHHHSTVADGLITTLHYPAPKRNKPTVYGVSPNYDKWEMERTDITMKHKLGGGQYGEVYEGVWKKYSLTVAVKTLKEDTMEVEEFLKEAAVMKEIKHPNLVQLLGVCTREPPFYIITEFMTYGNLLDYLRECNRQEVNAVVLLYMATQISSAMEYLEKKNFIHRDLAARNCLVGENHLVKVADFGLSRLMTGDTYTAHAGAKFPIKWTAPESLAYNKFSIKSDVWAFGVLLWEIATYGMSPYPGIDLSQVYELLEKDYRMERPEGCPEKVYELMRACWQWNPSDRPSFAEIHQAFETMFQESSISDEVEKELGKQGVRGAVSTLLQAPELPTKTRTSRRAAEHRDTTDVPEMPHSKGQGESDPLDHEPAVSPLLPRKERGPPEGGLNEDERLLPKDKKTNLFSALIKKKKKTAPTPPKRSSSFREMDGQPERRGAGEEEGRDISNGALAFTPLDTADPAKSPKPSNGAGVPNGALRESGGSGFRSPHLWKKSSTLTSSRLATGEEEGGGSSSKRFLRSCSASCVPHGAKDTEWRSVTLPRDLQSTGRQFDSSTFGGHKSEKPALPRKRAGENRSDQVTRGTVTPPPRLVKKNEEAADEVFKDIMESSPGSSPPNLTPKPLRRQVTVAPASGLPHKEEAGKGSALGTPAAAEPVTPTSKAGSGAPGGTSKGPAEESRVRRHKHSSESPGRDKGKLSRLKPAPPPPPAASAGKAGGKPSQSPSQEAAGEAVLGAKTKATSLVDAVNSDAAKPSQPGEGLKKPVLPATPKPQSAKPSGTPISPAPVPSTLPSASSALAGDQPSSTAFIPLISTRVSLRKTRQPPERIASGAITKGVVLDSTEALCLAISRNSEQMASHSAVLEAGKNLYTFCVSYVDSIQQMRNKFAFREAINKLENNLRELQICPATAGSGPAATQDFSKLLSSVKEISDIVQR

[8] = target: Mitogen-activated protein kinase kinase kinase 5 (Homo sapiens) (UniProt Q99683); assay: Inhibition of human partial length wild type ASK1 expressed in bacterial system at 1 uM by KINOMEscan analysis relative to control
Chain of Mitogen-activated protein kinase kinase kinase 5 (Homo sapiens) (Q99683 whole entry): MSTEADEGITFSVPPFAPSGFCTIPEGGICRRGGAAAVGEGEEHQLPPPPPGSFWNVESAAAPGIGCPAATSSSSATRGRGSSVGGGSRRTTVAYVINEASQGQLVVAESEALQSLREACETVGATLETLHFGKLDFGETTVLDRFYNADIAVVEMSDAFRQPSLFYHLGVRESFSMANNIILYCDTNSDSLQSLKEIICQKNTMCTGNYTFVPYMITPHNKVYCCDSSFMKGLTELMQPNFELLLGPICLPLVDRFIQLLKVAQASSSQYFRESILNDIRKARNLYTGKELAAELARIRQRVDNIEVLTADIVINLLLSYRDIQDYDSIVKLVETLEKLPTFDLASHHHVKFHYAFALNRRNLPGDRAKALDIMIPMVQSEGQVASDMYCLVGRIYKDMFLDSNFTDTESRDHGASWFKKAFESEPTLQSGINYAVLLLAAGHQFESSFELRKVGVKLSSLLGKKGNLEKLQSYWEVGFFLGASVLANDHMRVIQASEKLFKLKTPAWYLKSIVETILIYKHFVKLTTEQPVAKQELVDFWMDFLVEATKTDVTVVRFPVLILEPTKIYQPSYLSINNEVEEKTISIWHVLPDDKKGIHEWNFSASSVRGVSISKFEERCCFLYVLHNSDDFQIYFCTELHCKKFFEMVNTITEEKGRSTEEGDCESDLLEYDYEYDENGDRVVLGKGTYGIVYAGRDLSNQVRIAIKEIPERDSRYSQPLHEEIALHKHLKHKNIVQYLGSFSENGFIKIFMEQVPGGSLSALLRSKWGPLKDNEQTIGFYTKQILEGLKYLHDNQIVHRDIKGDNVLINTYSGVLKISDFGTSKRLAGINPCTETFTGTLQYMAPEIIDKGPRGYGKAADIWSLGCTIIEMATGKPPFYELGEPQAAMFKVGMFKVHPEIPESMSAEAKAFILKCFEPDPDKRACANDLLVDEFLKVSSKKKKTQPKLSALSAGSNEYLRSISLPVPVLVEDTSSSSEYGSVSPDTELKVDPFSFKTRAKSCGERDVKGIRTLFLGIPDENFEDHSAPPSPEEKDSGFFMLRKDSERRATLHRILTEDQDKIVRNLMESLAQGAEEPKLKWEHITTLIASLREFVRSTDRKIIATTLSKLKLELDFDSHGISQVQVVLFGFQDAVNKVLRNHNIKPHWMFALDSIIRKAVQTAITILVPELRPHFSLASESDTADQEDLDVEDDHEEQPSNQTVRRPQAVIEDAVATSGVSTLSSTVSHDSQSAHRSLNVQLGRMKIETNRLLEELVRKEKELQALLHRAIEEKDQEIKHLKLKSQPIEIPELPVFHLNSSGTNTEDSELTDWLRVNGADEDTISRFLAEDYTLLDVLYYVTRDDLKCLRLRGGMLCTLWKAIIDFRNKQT

[9] = target: Platelet-derived growth factor receptor beta (Homo sapiens) (UniProt P09619); assay: Inhibition of human partial length wild type PDGFRbeta V582/Y1009 expressed in bacterial system at 1 uM by KINOMEscan analysis relative to control
Chain of Platelet-derived growth factor receptor beta (Homo sapiens) (P09619 whole entry): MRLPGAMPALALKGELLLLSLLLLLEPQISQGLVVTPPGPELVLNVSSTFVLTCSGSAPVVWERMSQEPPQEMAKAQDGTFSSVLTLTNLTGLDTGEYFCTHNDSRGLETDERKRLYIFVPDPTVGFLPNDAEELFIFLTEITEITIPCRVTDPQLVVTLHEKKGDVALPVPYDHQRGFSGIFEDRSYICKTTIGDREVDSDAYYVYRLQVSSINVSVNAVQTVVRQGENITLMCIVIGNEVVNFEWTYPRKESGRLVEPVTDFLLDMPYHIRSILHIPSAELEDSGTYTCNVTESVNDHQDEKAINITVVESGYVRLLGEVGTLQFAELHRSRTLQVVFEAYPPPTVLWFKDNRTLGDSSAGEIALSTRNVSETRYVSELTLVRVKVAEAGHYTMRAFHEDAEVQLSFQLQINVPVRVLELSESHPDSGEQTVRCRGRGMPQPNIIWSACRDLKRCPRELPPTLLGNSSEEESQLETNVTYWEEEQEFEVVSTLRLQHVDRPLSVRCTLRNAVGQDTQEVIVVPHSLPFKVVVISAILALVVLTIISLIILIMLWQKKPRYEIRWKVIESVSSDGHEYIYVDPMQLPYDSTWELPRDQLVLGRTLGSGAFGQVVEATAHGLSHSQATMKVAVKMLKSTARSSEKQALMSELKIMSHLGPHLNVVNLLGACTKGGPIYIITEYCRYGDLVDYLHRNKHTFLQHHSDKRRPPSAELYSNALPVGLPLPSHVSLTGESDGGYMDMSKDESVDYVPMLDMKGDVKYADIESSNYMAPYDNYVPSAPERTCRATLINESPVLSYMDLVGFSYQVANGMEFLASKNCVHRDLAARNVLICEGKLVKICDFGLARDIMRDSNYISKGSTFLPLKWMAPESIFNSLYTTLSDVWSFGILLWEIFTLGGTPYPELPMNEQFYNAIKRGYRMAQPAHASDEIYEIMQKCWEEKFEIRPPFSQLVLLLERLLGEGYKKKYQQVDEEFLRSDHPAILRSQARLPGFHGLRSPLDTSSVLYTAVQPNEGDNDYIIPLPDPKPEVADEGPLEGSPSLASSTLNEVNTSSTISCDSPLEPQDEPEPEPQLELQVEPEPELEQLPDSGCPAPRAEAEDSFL

Homo sapiens [10] = species: Homo sapiens; assay: Inhibition of PIK3 (unknown origin) at 1 uM relative to control
[11] = target: Mitogen-activated protein kinase 14 (Homo sapiens) (UniProt Q16539); assay: Inhibition of full length human recombinant SAPK2a at 1 uM by radiometric assay
Homo sapiens [12] = species: Homo sapiens; assay: Inhibition of P13 Kinase p120gamma (unknown origin) at 1 uM relative to control
[13] = AUClast in ICR mouse at 5 mg/kg, iv single dose measured upto 24 hrs; type: ADME, organism-based; design: dose 5 mg/kg, time < 24 hrs, route iv; conditions: in vivo
[14] = Half life in ICR mouse at 5 mg/kg, iv single dose measured upto 24 hrs; type: ADME, organism-based; conditions: in vivo
Mus musculus = assay: Reduction in kidney size in kidney-specific Pkd1 knockout ADPKD mouse model assessed as renal cystic index at 5 mg/kg by HE staining analysis (reference value: 23 +/- 1.3%); type: functional, organism-based

`C=CC(=O)Nc1ccc(C(=O)Nc2n[nH]c3ccc(-c4cncc(NC[C@@H](O)c5ccccc5)c4)cc23)cc1` gave an IC50 [1] of over 10 µM, an IC50 [2] of 0.95 µM and an IC50 [3] of over 10 µM. The inhibition [4] was 99%, the inhibition [5] was 68% and the inhibition [6] was 66%. It also gave an inhibition [7] of under 50%, an inhibition [8] of under 50% and an inhibition [9] of under 50%. It also gave an inhibition (Homo sapiens [10]) of under 50%, an inhibition [11] of under 50% and an inhibition (Homo sapiens [12]) of under 50%. The AUC(0-t) at 24 h [13] was 26900 ng·h/mL, the half-life [14] was 18 h and the Activity (Mus musculus) was “Active”.

— ChEMBL document CHEMBL5236590, “Discovery of Novel N-(5-(Pyridin-3-yl)-1H-indazol-3-yl)benzamide Derivatives as Potent Cyclin-Dependent Kinase 7 Inhibitors for the Treatment of Autosomal Dominant Polycystic Kidney Disease” (J Med Chem, 2022)
